The values that follow come from patent publication US20190076384A1, “METHODS FOR TREATING UREA CYCLE DISORDERS” (priority 2017, published 2019).

One series has as its target CYP2C9 (Homo sapiens, UniProt P11712). The conditions noted are these: Diclofenac 4′-hydroxylase, 5 mM.
Series [1] in a line: Safety and tolerability of RAVICTI co-administered with celecoxib. It is filed as in vivo, human. The protocol:
Safety: Safety and tolerability were assessed through adverse events (AEs), clinical laboratory results, physical examination findings, vital sign measurements, and electrocardiograms (ECGs).
Safety: Safety data were summarized by treatment and time point. Descriptive statistics (mean, standard deviation [SD], minimum, median, maximum, and sample size [N]) were calculated for quantitative safety data and frequency counts were compiled for classification of qualitative safety data. AE verbatim terms were mapped to preferred terms and system organ classes using the Medical Dictionary for Regulatory Activities (MedDRA®) (Version 18.0). Concomitant medications were coded with the World Health Organization (WHO) Dictionary version 1Mar. 2015.

The target of a further series is Cytochrome P450 3A4 (Homo sapiens, UniProt P08684). Description: clinical. The protocol: Methodology: This was a Phase 1, open-label, monosequence crossover, drug-drug interaction study of RAVICTI® and midazolam in healthy male and female subjects.
Single doses of midazolam HCl syrup (2 mg/mL) were administered in the morning following an approximate 10-hour fast on Days 1 and 5 (coadministered with RAVICTI® on Day 5) just prior to administration of breakfast (˜5 minutes before breakfast).
Pharmacokinetics: Blood samples for the analysis of plasma midazolam and its metabolite (1′-OH-midazolam, free+conjugates) levels were collected via an indwelling catheter and/or via direct venipuncture. Blood samples were collected on Days 1 and 5 at the following time points: predose, 0.5, 1, 2, 3, 4, 6, 8, 10, 12, 16, and 24 hours postdose. In addition, five plasma PK samples for GPB analysis were collected on Day 4 at the following time points: at 1 minute, 30 minutes, and 1 hour following the first morning dose of RAVICTI; at 30 minutes and 1 hour post second dose of RAVICTI.
Pharmacokinetics: The possible drug-drug interaction was examined between coadministration of RAVICTI and midazolam (test) and midazolam administered alone (reference). An analysis of variance (ANOVA), with treatment as a fixed effect and subject as a random effect, was performed. Data for Cmax, AUC0-t, and AUC0-∞, as appropriate, were natural log (ln)-transformed prior to analysis. The 90% confidence intervals (CIs) of the test group means relative to the reference group means were obtained by taking the antilog of the corresponding 90% CIs for the differences between the means on the log scale, i.e., ratio of geometric least-squares (LS) means.

Where [2] appears, read: RAVICTI co-administered with celecoxib, 28 healthy subjects.

SMILES strings stand for the structures. Read-outs that look alike come from different tables or passages of the source.

Sequence of Cytochrome P450 3A4 (P08684 whole entry): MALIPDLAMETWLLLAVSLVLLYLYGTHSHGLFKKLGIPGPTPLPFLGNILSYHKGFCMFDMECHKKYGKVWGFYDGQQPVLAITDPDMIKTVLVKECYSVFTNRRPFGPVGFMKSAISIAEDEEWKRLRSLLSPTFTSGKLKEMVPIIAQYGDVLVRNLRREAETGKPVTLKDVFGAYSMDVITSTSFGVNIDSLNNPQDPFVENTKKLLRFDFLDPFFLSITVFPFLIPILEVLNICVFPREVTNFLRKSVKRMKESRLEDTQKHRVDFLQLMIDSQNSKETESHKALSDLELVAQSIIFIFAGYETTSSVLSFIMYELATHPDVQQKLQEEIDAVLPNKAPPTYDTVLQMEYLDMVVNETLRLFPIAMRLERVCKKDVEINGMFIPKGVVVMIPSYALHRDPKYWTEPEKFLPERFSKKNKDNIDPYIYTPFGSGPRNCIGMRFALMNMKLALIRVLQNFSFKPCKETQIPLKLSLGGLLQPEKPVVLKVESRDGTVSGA
Sequence of CYP2C9 (P11712 whole entry): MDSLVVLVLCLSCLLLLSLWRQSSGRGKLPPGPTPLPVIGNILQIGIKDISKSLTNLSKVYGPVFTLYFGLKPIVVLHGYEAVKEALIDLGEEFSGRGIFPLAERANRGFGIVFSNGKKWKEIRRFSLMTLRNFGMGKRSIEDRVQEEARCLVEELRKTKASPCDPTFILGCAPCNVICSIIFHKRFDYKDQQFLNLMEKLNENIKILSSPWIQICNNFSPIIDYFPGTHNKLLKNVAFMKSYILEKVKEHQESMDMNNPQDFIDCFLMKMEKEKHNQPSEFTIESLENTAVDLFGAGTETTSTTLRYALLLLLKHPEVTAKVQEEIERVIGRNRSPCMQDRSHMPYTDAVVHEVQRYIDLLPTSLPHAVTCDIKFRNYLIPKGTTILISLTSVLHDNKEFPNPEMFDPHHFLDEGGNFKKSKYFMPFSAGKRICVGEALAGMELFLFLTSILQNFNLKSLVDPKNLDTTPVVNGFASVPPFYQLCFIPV

As for `O=C(CCCc1ccccc1)OCC(COC(=O)CCCc1ccccc1)OC(=O)CCCc1ccccc1` [RAVICTI, benzenebutanoic acid, 1′,1″-(1,2,3-propanetriyl) ester], on CYP2C9 (pre-incubation time 0 min), the “% Inhibition” value came out at 35%. The “% Inhibition” value on CYP2C9 (pre-incubation time 30 min) was found to be 19%. In series [1] (setting [2]), the “deaths, SAEs, discontinuations due to AEs” value is “no deaths, SAEs, or subject discontinuations due to AEs”; the “subjects experiencing TEAEs” value is 8 subjects; the “total TEAEs” value is listed as 23. Further, in series [1] (oral RAVICTI co-administered with celecoxib, healthy adults), the “safety and tolerability (conclusion)” value was “safe and generally well tolerated”. The “drug-drug interaction by statistical analysis of Cmax, AUC0-t and AUC0-∞” value at Cytochrome P450 3A4 (RAVICTI metabolites with midazolam and 1′-OH-midazolam, 90% CIs outside 80 to […]) is given as “significant drug-drug interaction”. Also, the “effect on CYP3A4 enzyme in vivo (conclusion)” value at Cytochrome P450 3A4 (steady-state RAVICTI, healthy subjects) is “weak inducer”.
